Assay results: US20140296146A1, “Thermostable Inhibitors of Activation of the Blood Clotting System Through Contact with Foreign Surfaces” (Synapse B.V., priority 2011, published 2014)

T1: h-FXIIa (Homo sapiens, UniProt P00748)
T1 construct: purchased Enzyme Research Laboratories FXIIa 1212A
T1 sequence (P00748 373-615 limits assumed): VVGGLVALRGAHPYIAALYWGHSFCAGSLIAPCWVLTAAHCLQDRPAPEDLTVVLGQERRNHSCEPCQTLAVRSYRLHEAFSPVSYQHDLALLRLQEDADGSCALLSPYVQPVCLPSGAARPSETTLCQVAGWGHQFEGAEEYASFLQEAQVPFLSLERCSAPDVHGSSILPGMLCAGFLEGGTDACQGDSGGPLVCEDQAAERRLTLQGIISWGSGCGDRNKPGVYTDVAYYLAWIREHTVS
T1 sequence (P00748 20-372 partner limits assumed): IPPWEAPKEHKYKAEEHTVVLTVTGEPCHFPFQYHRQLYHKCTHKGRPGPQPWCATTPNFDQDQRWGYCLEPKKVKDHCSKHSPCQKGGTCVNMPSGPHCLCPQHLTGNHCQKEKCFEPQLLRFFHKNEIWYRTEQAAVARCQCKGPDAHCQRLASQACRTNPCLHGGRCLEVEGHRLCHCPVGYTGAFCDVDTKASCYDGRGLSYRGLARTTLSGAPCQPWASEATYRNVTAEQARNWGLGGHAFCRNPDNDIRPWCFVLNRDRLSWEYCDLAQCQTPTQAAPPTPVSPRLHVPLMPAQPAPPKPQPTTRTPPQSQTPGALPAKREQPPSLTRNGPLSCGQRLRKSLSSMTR

T2: h-FXIIa (human, UniProt P00748 20-615)
T2 construct: also called factor XIIa
T2 sequence (looked up): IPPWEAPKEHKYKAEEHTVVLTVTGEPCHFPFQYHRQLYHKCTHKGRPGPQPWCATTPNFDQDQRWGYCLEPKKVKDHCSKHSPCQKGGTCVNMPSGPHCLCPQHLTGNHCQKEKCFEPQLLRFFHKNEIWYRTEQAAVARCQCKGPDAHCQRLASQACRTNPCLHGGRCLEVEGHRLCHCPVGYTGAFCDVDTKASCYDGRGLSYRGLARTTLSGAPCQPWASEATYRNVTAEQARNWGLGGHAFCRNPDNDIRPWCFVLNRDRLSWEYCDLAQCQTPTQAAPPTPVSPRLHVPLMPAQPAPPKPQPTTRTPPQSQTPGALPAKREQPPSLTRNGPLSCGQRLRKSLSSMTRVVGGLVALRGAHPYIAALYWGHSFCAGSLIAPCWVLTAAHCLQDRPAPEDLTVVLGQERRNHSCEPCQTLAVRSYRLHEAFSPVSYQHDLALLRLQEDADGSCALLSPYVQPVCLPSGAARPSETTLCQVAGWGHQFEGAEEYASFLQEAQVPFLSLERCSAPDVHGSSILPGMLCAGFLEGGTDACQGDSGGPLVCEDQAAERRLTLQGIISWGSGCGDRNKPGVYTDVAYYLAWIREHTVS

B1: Corn trypsin inhibitor (other, UniProt P01088 29-138, looked up)
chain: SAGTSCVPGWAIPHNPLPSCRWYVTSRTCGIGPRLPWPELKRRCCRELADIPAYCRCTALSILMDGAIPPGPDAQLEGRLEDLPGCPREVQRGFAATLVTEAECNLATIS
notes: also called CTI

Experiments:
h-FXIIa [1] = target: T1, h-FXIIa; assay: Effect of inhibitors on hydrolysis of S2302 by h-FXIIa; assay type: biochemical
Procedure: Materials • S2302 From Chromogenic, lot # N0398718 SEQ0860, exp. date 2012-07. Water added on 7 Oct. […] On 3 Aug. […] Product code FXIIa 1212A, lot #FXIIa 2520PL. Bottle with 0.5 mg was reconstituted with 370 μl pure water. […] Buffer 4 mM NaAc, 150 mM NaCl (pH 5.3). Preparation was divided into 20 μl amounts and frozen at −80° C. • Hepes735 140 mM NaCl, 20 mM Hepes, 0.02% NaN3 (pH 7.35). • BSA5 Hepes735+5 mg/ml BSA. • CTI Prepared on 17 Dec. 2004, 0.141 mg/ml, i.e. 0.141/12028=11.7*10^−6 M (11.7 μM). One portion was thawed and divided into 3 parts. Part 1 was frozen at −80° C.; part 2 was kept at RT; and part 3 was incubated 30 min at 95° C. and then kept at RT.
(§1) Stock FXIIa was diluted 700× in BSA5. The inhibitor was diluted in BSA5 as indicated. Wells contained 70 μl diluted FXIIa (5 nM final), 70 μl inhibitor and 20 μl S2302 (475 or 462.5 μM final). The reaction was started after 5 min heating on the heating plate with S2302. Filters 405 nm and 490 nm reference. Found mΔA/min was multiplied by 2.14 to get the figure for a 1 cm path.
The residual activity (V) was fitted against the PTI concentration with equation:
V=(E+(sqrt(Ê2+2*E*(Ki−I)+Î2+2*I*Ki+Kî2)−E−I−Ki)/2)*kcat*S/(Km+S)
in which E=[FXIIa], Ki is the dissociation constant, I=[Inhibitor], kcat and Km are Michaelis constants and S=[S2302].

[2] = TICA1 Ala-scan with intact disulfides, activity vs TICA1; conditions: single amino acid substituted by alanine
Description: Every single amino acid was substituted by alanine except for cysteine. […] See also FIG. 6.

h-FXIIa [3] = target: T2, h-FXIIa; assay: S2302 hydrolysis by h-FXIIa (5.01 nM); inhibitor at RT during 72 hrs, against -80° C.
Procedure: as §1, with “ΔmA/min” for “mΔA/min”

h-FXIIa [4] = target: T2, h-FXIIa; assay: S2302 hydrolysis by h-FXIIa (5.01 nM); inhibitor at RT during 72 hrs
Procedure: as §1, with “ΔmA/min” for “mΔA/min”

h-FXIIa [5] = target: T2, h-FXIIa; assay: S2302 hydrolysis by h-FXIIa (5.01 nM); inhibitor 30 min 95° C.
Procedure: as §1, with “ΔmA/min” for “mΔA/min”

h-FXIIa [6] = target: T2, h-FXIIa; assay: S2302 hydrolysis by h-FXIIa (5.01 nM); inhibitor 30 min 95° C., against -80° C.
Procedure: as §1, with “ΔmA/min” for “mΔA/min”

| Molecule | Ki (h-FXIIa [1]; Ki, Table 2, inhibitory activity of different polypeptides) [nM] | Ki (h-FXIIa [1]; ki F.XIIa (ng/ml), After heating) [nM] | Ki (h-FXIIa [1]; ki F.XIIa (ng/ml), Before heating) [nM] | Activity vs TICA1 [2] [%] | Res. Act. (%) (h-FXIIa [3]) | Ki (h-FXIIa [4]) [nM] | Ki (h-FXIIa [5]) [nM] | Res. Act. (%) (h-FXIIa [6]) |
| --- | --- | --- | --- | --- | --- | --- | --- | --- |
| CC[C@H](C)[C@@H]1NC(=O)[C@H](CCCNC(=N)N)NC(=O)[C@@H]2CCCN2C(=O)[C@@H](NC(=O)[C@@H](NC(=O)[C@@H](N)CCCNC(=N)N)C(C)C)CSSC[C@@H]2NC(=O)[C@H](CCC(=O)O)NC(=O)[C@H](C)NC(=O)[C@H](CC(C)C)NC(=O)[C@@H]3CSSC[C@@H](C(=O)NCC(=O)O)NC(=O)[C@H](Cc4ccc(O)cc4)NC(=O)CNC(=O)[C@H](Cc4c[nH]cn4)NC(=O)[C@H](CCC(=O)O)NC(=O)[C@H](CC(C)C)NC(=O)[C@H](CSSC[C@H](NC(=O)[C@H](CCCCN)NC(=O)[C@H](CCSC)NC(=O)[C@H](CC(C)C)NC1=O)C(=O)N[C@@H](CCCCN)C(=O)N[C@@H](CCCCN)C(=O)N[C@@H](CC(=O)O)C(=O)N[C@@H](CO)C(=O)N[C@@H](CC(=O)O)C(=O)N3)NC(=O)[C@H](C(C)C)NC2=O [TICA1] | 25.5 | 26 | 25.4 | 100 |  |  |  |  |
| B1 |  |  |  |  | 86 | 4.19 | 5.1 | 70 |
